Measured values as given in paper PMC8119466, “A screen of FDA-approved drugs identifies inhibitors of protein tyrosine phosphatase 4A3 (PTP4A3 or PRL-3)” (Scientific Reports, 2021).
Structures can show the parent of a compound that is named as a salt. Where two headings read alike, the source gives them in different places.

Key:
Assay type in all cases: biochemical
recombinant PRL-2 = molecular target: T1, recombinant PRL-2 (Homo sapiens, UniProt Q12974); experiment: In vitro phosphatase assay (DiFMUP hydrolysis), PRL-2;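 further: PRL-2 activity read as DiFMUP hydrolysis after 20 min at room temperature with drug, enzyme first pre-reduced at 4 °C for 20 min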
T1 construct: 6xHis (N, cleaved yes); made in house; host or cells: E. coli One Shot BL21 Star
T1 sequence (Q12974 1-167): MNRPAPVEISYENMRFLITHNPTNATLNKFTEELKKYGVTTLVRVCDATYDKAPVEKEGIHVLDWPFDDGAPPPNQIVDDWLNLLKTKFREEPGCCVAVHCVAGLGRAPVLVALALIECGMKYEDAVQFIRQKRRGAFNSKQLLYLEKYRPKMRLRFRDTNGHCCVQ

recombinant PRL-1 = molecular target: T2, recombinant PRL-1 (Homo sapiens, UniProt Q93096); experiment: In vitro phosphatase assay (DiFMUP hydrolysis), PRL-1; further: test concentration or dose not given here
T2 construct: 6xHis (N, cleaved yes); made in house; host or cells: E. coli One Shot BL21 Star
T2 sequence (Q93096 1-173): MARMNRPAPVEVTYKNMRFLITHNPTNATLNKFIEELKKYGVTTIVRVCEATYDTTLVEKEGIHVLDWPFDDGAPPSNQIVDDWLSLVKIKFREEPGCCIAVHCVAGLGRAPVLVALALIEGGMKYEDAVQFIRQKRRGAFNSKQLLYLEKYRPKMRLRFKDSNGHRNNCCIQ

recombinant PRL-3 = molecular target: T3, recombinant PRL-3 (Homo sapiens, UniProt O75365); experiment: In vitro phosphatase assay (DiFMUP hydrolysis), PRL-3; further: test concentration or dose not given here
T3 construct: 6xHis (N, cleaved yes); made in house; host or cells: E. coli One Shot BL21 Star

[1] = FDA-approved drug screen, compared to DMSO

T3 sequence (O75365 whole entry): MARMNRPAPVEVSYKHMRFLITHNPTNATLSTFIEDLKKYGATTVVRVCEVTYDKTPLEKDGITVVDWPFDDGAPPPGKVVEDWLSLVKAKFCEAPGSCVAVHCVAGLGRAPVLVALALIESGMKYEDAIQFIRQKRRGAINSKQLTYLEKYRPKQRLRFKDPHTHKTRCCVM

Row | Compound | % Phosphatase Activity (compared to DMSO) PRL-2 (recombinant PRL-2; [1]) | % Phosphatase Activity (compared to DMSO) PRL-1 (recombinant PRL-1; [1]) | % Phosphatase Activity (compared to DMSO) PRL-3 (recombinant PRL-3; [1]) | % Phosphatase Activity (compared to DMSO) PRL-2 (recombinant PRL-2) | % Phosphatase Activity (compared to DMSO) PRL-1 (recombinant PRL-1) | % Phosphatase Activity (compared to DMSO) PRL-3 (recombinant PRL-3)
1 | CC(C)C(=O)Nc1ccc([N+](=O)[O-])c(C(F)(F)F)c1 [Flutamide] | 76% | 81% | 77% | – | – | –
2 | CCC(=O)O[C@]1(C(=O)SCF)[C@H](C)C[C@H]2[C@@H]3C[C@H](F)C4=CC(=O)C=C[C@]4(C)[C@@]3(F)[C@@H](O)C[C@@]21C [Fluticasone propionate] | 92% | 103% | 90% | – | – | –
3 | CC(C)n1c(/C=C/C(O)CC(O)CC(=O)O)c(-c2ccc(F)cc2)c2ccccc21 (stereo not drawn) [Fluvastatin Sodium] | 95% | 81% | 89% | – | – | –
4 | COCCCC/C(=N\OCCN)c1ccc(C(F)(F)F)cc1 [Fluvoxamine maleate] | 100% | 88% | 75% | – | – | –
5 | Nc1nc(=O)c2nc(CNc3ccc(C(=O)N[C@@H](CCC(=O)O)C(=O)O)cc3)cnc2[nH]1 [Folic acid] | 112% | 100% | 92% | – | – | –
6 | Cc1cn[nH]c1 [Fomepizole] | 102% | 102% | 78% | – | – | –
7 | COc1cc2c(Oc3ccc(NC(=O)C4(C(=O)Nc5ccc(F)cc5)CC4)cc3F)ccnc2cc1OCCCN1CCOCC1 [Foretinib (GSK1363089)] | 105% | 103% | 97% | – | – | –
8 | C[C@]12CCC(=O)C(O)=C1CC[C@@H]1[C@@H]2CC[C@]2(C)C(=O)CC[C@@H]12 [Formestane] | – | – | – | 123% | 102% | 85%
9 | COc1ccc(C[C@@H](C)NC[C@H](O)c2ccc(O)c(NC=O)c2)cc1.COc1ccc(C[C@@H](C)NC[C@H](O)c2ccc(O)c(NC=O)c2)cc1.O=C(O)/C=C/C(=O)O [Formoterol Hemifumarate] | 106% | 95% | 91% | – | – | –
10 | CNC[C@H](O)[C@@H](O)[C@H](O)[C@H](O)CO.CNC[C@H](O)[C@@H](O)[C@H](O)[C@H](O)CO.C[C@@H](O[C@H]1OCCN(Cc2nn(P(=O)(O)O)c(=O)[nH]2)[C@H]1c1ccc(F)cc1)c1cc(C(F)(F)F)cc(C(F)(F)F)c1 [Fosaprepitant dimeglumine salt] | 94% | 87% | 85% | – | – | –
11 | O=C(O)P(=O)(O)O [Foscarnet Sodium] | 109% | 109% | 91% | – | – | –
12 | C[C@@H]1O[C@@H]1P(=O)(O)O.NC(CO)(CO)CO [Fosfomycin Tromethamine] | 101% | 100% | 92% | – | – | –
13 | CCC(=O)O[C@@H](O[P@](=O)(CCCCc1ccccc1)CC(=O)N1C[C@H](C2CCCCC2)C[C@H]1C(=O)[O-])C(C)C.[Na+] [Fosinopril Sodium] | 69% | 91% | 80% | – | – | –
14 | COc1cc(Nc2ncc(F)c(Nc3ccc4c(n3)N(COP(=O)(O)O)C(=O)C(C)(C)O4)n2)cc(OC)c1OC [Fostamatinib (R788)] | 111% | 92% | 96% | – | – | –
15 | C[C@]12CC[C@@H]3c4ccc(O)cc4C[C@@H](CCCCCCCCC[S+]([O-])CCCC(F)(F)C(F)(F)F)[C@H]3[C@@H]1CC[C@@H]2O (stereo partly drawn) [Fulvestrant] | 91% | 99% | 82% | – | – | –
16 | Cl.O=C1OC(CN2CCOCC2)CN1/N=C/c1ccc([N+](=O)[O-])o1 (stereo not drawn) [Furaltadone HCl] | 80% | 74% | 65% | – | – | –

Row | Compound | % Phosphatase Activity (compared to DMSO) PRL-2 (recombinant PRL-2; [1]) | % Phosphatase Activity (compared to DMSO) PRL-1 (recombinant PRL-1; [1]) | % Phosphatase Activity (compared to DMSO) PRL-3 (recombinant PRL-3; [1]) | % Phosphatase Activity (compared to DMSO) PRL-2 (recombinant PRL-2) | % Phosphatase Activity (compared to DMSO) PRL-1 (recombinant PRL-1) | % Phosphatase Activity (compared to DMSO) PRL-3 (recombinant PRL-3)
17 | NS(=O)(=O)c1cc(C(=O)O)c(NCc2ccco2)cc1Cl [Furosemide] | 107% | 97% | 114% | – | – | –
18 | CC(=O)O[C@H]1C[C@@]2(C)[C@@H](C[C@@H](O)[C@H]3[C@@]4(C)CC[C@@H](O)[C@@H](C)[C@@H]4CC[C@@]32C)/C1=C(\CCC=C(C)C)C(=O)O [Fusidate Sodium] | 79% | 87% | 66% | – | – | –
19 | c1cn2cc(-c3ccc4cn[nH]c4c3)nc(Nc3ccc(N4CCOCC4)cc3)c2n1 [GS-9973] | 209% | 294% | 104% | – | – | –
20 | COc1ncc(-c2ccc3nccc(-c4ccnnc4)c3c2)cc1NS(=O)(=O)c1ccc(F)cc1F [GSK2126458 (GSK458)] | 85% | 94% | 88% | – | – | –
21 | Cl.NCC1(CC(=O)O)CCCCC1 [Gabapentin HCl] | 87% | 99% | 85% | – | – | –
22 | NCC1(CC(=O)O)CCCCC1 [Gabapentin] | 92% | 105% | 87% | – | – | –
23 | CCOC(=O)c1ccc(OC(=O)CCCCCN=C(N)N)cc1.CS(=O)(=O)O [Gabexate Mesylate] | 103% | 93% | 80% | – | – | –
24 | C[C@]12CC[C@H](O)CC1=CC[C@@H]1[C@@H]2CC[C@]2(C)C(n3cnc4ccccc43)=CC[C@@H]12 [Galeterone] | 98% | 90% | 96% | – | – | –
25 | CC[N+](CC)(CC)CCOc1cccc(OCC[N+](CC)(CC)CC)c1OCC[N+](CC)(CC)CC [Gallamine Triethiodide] | 105% | 104% | 84% | – | – | –
26 | O=C(O)c1cc(O)c(O)c(O)c1 [Gallic acid] | 76% | 100% | 80% | – | – | –
27 | Nc1nc(O)c2ncn(COC(CO)CO)c2n1 [Ganciclovir] | 98% | 90% | 99% | – | – | –
28 | CC(C)c1cc(-c2n[nH]c(=O)n2-c2ccc3c(ccn3C)c2)c(O)cc1O [Ganetespib (STA-9090)] | 97% | 91% | 89% | – | – | –
29 | COc1c(N2CCNC(C)C2)c(F)cc2c(=O)c(C(=O)O)cn(C3CC3)c12 (stereo not drawn) [Gatifloxacin] | 187% | 146% | 122% | – | – | –
30 | COc1cc2ncnc(Nc3ccc(F)c(Cl)c3)c2cc1OCCCN1CCOCC1 [Gefitinib (ZD1839)] | 102% | 93% | 77% | – | – | –
31 | Nc1ccn([C@@H]2O[C@H](CO)[C@@H](O)C2(F)F)c(=O)n1 [Gemcitabine HCl] | 78% | 93% | 94% | – | – | –
32 | Nc1ccn([C@@H]2O[C@H](CO)[C@@H](O)C2(F)F)c(=O)n1 [Gemcitabine] | 100% | 109% | 77% | – | – | –
